The results in this text go back to patent US9078909B2, “Tertiary amines, medicaments containing said amines, use thereof and processes for the preparation thereof” (Boehringer Ingelheim International GmbH, priority 2012, dated 2015).

In the assay the target is T1, epithelial sodium channel (ENaC) (Mus musculus, UniProt Q61180+Q9WU38+Q9WU39).
T1 construct: Mouse kidney M-1 cells were cultivated in DMEM; endogenous in cells; host or cells: mouse kidney M-1 cells (cortical collecting duct line), dexamethasone-treated, on transwell filters
T1 sequence (Q61180 1-699): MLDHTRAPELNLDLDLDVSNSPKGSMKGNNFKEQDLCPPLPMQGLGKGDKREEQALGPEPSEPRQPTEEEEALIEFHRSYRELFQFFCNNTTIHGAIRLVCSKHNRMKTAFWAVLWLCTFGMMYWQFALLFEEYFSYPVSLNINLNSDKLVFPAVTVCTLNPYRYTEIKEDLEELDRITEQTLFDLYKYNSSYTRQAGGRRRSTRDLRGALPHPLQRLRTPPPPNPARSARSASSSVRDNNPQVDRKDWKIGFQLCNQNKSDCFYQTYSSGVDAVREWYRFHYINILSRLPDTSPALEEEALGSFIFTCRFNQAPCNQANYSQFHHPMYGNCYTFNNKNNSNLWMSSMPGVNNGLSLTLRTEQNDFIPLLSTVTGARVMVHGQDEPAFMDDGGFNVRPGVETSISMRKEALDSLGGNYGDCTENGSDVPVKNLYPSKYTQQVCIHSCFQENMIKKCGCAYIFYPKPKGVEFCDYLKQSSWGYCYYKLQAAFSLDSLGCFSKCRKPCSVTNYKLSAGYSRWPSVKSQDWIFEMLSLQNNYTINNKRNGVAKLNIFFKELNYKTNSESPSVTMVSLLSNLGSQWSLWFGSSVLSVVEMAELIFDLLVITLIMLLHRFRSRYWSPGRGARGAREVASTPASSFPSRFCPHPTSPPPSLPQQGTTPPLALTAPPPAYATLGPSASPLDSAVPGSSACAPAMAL
T1 sequence (Q9WU38 1-638): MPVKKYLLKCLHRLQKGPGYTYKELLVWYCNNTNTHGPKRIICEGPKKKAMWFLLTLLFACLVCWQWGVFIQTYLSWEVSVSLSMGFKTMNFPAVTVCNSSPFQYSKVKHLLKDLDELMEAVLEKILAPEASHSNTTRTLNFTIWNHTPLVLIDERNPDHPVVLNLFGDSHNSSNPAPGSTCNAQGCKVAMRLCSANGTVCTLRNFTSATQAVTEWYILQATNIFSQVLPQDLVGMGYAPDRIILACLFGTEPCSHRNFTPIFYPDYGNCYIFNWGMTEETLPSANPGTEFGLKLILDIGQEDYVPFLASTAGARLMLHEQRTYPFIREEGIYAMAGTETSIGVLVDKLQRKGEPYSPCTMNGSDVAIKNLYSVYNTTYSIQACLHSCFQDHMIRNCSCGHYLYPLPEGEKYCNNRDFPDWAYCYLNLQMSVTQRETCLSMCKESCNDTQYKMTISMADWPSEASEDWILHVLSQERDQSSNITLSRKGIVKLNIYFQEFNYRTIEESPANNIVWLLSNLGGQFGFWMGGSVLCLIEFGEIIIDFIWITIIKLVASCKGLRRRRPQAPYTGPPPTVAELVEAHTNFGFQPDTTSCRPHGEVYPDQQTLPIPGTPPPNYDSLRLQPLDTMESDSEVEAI
T1 sequence (Q9WU39 1-655): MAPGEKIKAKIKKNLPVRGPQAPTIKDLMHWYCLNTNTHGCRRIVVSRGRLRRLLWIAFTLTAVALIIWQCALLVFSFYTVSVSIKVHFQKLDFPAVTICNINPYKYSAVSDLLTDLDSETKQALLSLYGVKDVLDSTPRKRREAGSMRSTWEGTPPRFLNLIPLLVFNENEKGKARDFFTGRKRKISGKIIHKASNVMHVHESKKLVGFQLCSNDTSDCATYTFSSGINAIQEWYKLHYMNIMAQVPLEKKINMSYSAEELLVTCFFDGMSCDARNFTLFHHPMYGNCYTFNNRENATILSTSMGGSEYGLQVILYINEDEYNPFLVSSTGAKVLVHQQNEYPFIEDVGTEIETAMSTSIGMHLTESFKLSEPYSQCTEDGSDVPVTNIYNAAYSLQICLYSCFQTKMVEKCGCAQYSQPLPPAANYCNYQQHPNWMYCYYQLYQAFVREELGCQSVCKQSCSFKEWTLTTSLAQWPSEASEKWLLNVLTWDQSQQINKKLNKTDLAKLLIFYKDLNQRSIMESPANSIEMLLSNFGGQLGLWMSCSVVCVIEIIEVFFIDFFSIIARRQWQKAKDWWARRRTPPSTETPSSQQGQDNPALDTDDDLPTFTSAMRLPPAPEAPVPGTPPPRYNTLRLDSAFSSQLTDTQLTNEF
Description: Ussing Chamber assay: inhibition of amiloride sensitive short circuit current (I_sc) in M-1 cells. It counts as cell-based. The settings on record: Ussing Chamber; mouse kidney M-1 cells on transwell filters; short circuit current; compound added to apical solution; 37° C.; read-out: IC50. Here is the method:
Ussing Chamber: Mouse kidney M-1 cells were cultivated in DMEM containing 5% FCS and 5 μM dexamethasone for 10 to 12 days on polyester transwell filters. Filters were inserted into a teflon-coated well-plate which fit into the in-house ussing chamber system. Prior to measurement the medium of M-1 cells was replaced with Caco-2 transport buffer (Invitrogen, Germany). During measurements, the Ussing chamber temperature was kept at 37° C. Short circuit currents (I_sc) were measured in the voltage-clamp mode using an in-house built amplifier (Boehringer Ingelheim, Biberach) with the software package Lab View for data acquisition and analysis. The transepithelial electrical resistance (TEER) was determined by the application of voltage steps of ±5 mV every 5 sec. Compounds were administered at a final concentration of 3 μM or at increasing concentrations (e.g. 1-3-10 μM) to the apical solution. At the end of each experiment the amiloride sensitive I_SC was measured by adding 3 μM amiloride to the apical compartment. Results are expressed as inhibition in percent of the amiloride effect or as IC50.
With the example compounds given above, the following IC50 values were determined in the Ussing Chamber assay: […]
By IC50 is commonly meant the midpoint of a concentration-inhibition curve. For the compound `N=C(NC(=O)c1nc(Cl)c(N)nc1N)NC1CCN(CC(=O)Nc2ccccc2)CC1` [Example 1.1], the IC50 amounted to 2 nM. In the case of `NC(=O)c1ccc(NC(=O)CN2CCC(NC(N)=NC(=O)c3nc(Cl)c(N)nc3N)CC2)cc1` [Example 1.2] it was 2 nM; in that of `NC(=NC(=O)c1nc(Cl)c(N)nc1N)NC1CCN(CC(=O)Nc2ccc(S(N)(=O)=O)cc2)CC1` [Example 1.4], 2 nM; in that of `CN1CCC(N(C)C(=O)c2ccc(NC(=O)CN3CCC(NC(N)=NC(=O)c4nc(Cl)c(N)nc4N)CC3)cc2)CC1` [Example 1.5], 6 nM. For the compound `CN(C)CC(=O)N(C)c1ccc(NC(=O)CN2CCC(NC(N)=NC(=O)c3nc(Cl)c(N)nc3N)CC2)cc1` [Example 1.7], the IC50 was 1 nM. Take `NC(=NC(=O)c1nc(Cl)c(N)nc1N)NC1CCN(CC(=O)Nc2ccc(CN3CCCCC3)cc2)CC1` [Example 1.8]: the IC50 was 1 nM. Regarding `NC(=NC(=O)c1nc(Cl)c(N)nc1N)NC1CCN(CC(=O)Nc2cccc(CN3CCOCC3)c2)CC1` [Example 1.9], the IC50 was 1 nM. With `CC(=O)N(CCCN(C)C)c1ccc(NC(=O)CN2CCC(NC(N)=NC(=O)c3nc(Cl)c(N)nc3N)CC2)cc1` [Example 1.10] the figure was 1 nM; with `CN(C)CCN(C)S(=O)(=O)c1ccc(NC(=O)CN2CCC(NC(N)=NC(=O)c3nc(Cl)c(N)nc3N)CC2)cc1` [Example 1.11], 1 nM; with `CCN(CC)CCOc1ccc(NC(=O)CN2CCC(NC(N)=NC(=O)c3nc(Cl)c(N)nc3N)CC2)cc1` [Example 1.12], 2 nM.

As for `NC(=NC(=O)c1nc(Cl)c(N)nc1N)NC1CCN(CC(=O)Nc2ccc(S(=O)(=O)O)cc2)CC1` [Example 1.13], the IC50 amounted to 23 nM. In the case of `CN(C)CCN(c1ccc(NC(=O)CN2CCC(NC(N)=NC(=O)c3nc(Cl)c(N)nc3N)CC2)cc1)S(C)(=O)=O` [Example 1.14] it was 1 nM; in that of `Cn1ccc(NC(=O)CN2CCC(NC(N)=NC(=O)c3nc(Cl)c(N)nc3N)CC2)cc1=O` [Example 1.15], 4 nM; in that of `COC(=O)Cn1ccc(NC(=O)CN2CCC(NC(N)=NC(=O)c3nc(Cl)c(N)nc3N)CC2)cc1=O` [Example 1.16], 18 nM. Turning to `NC(=NC(=O)c1nc(Cl)c(N)nc1N)NC1CCN(CC(=O)Nc2cccnc2)CC1` [Example 1.17], the half-inhibitory concentration (IC50) amounted to 7 nM. With `COC(=O)c1ccccc1NC(=O)CN1CCC(NC(N)=NC(=O)c2nc(Cl)c(N)nc2N)CC1` [Example 1.18] the figure was 0.3 nM; with `COC(=O)c1cccc(NC(=O)CN2CCC(NC(N)=NC(=O)c3nc(Cl)c(N)nc3N)CC2)c1` [Example 1.19], 3 nM; with `NC(=NC(=O)c1nc(Cl)c(N)nc1N)NC1CCN(CC(=O)Nc2cccc(S(=O)(=O)O)c2)CC1` [Example 1.20], 17 nM. With `CN(Cc1ccccc1)C(=O)CN1CCC(NC(N)=NC(=O)c2nc(Cl)c(N)nc2N)CC1` [Example 1.21] the figure was 18 nM. In the case of `CN(C(=O)CN1CCC(NC(N)=NC(=O)c2nc(Cl)c(N)nc2N)CC1)c1ccccc1` [Example 1.22] it was 22 nM; in that of `NC(=NC(=O)c1nc(Cl)c(N)nc1N)NC1CCN(CC(=O)NCc2ccccc2)CC1` [Example 1.23], 3 nM. As for `NC(=NC(=O)c1nc(Cl)c(N)nc1N)NC1CCN(CC(=O)NCCCn2ccnc2)CC1` [Example 1.24], the half-maximal inhibitory concentration (IC50) was 7 nM.

For the compound `CS(=O)(=O)c1ccc(CNC(=O)CN2CCC(NC(N)=NC(=O)c3nc(Cl)c(N)nc3N)CC2)cc1` [Example 1.25], the IC50 was determined as 3 nM. As for `NC(=NC(=O)c1nc(Cl)c(N)nc1N)NC1CCN(CC(=O)NCc2ccc(S(N)(=O)=O)cc2)CC1` [Example 1.26], the IC50 is 3 nM. In the case of `Cc1ccc(CNC(=O)CN2CCC(NC(N)=NC(=O)c3nc(Cl)c(N)nc3N)CC2)o1` [Example 1.27] it was 4 nM; in that of `NC(=NC(=O)c1nc(Cl)c(N)nc1N)NC1CCN(CC(=O)NC2CCOCC2)CC1` [Example 1.29], 8 nM. With `CCSCCNC(=O)CN1CCC(NC(N)=NC(=O)c2nc(Cl)c(N)nc2N)CC1` [Example 1.30] the figure was 2 nM; with `NC(=NC(=O)c1nc(Cl)c(N)nc1N)NC1CCN(CC(=O)NC2CCSCC2)CC1` [Example 1.31], 2 nM. In the case of `NC(=NC(=O)c1nc(Cl)c(N)nc1N)NC1CCN(CC(=O)NC2CN3CCC2CC3)CC1` (stereo not drawn) [Example 1.32] it was 13 nM.

`CCNC(=O)CN1CCC(NC(N)=NC(=O)c2nc(Cl)c(N)nc2N)CC1` [Example 1.33]: the IC50 amounted to 5 nM. In the case of `CCOC(=O)c1cccc(CCNC(=O)CN2CCC(NC(N)=NC(=O)c3nc(Cl)c(N)nc3N)CC2)c1` [Example 1.34] it was 4 nM; in that of `NC(=NC(=O)c1nc(Cl)c(N)nc1N)NC1CCN(CC(=O)Nc2cccc(C(=O)O)c2)CC1` [Example 2.2], 31 nM; in that of `NC(=NC(=O)c1nc(Cl)c(N)nc1N)NC1CCN(CC(=O)Nc2ccccc2C(=O)O)CC1` [Example 2.3], 47 nM. With `CN(C)CCNC(=O)c1ccccc1NC(=O)CN1CCC(NC(=N)NC(=O)c2nc(Cl)c(N)nc2N)CC1` [Example 3.1] the figure was 19 nM. With `COC(=O)CCN1CCC(NC(=N)NC(=O)c2nc(Cl)c(N)nc2N)CC1` [Example 4.1] the figure was 19 nM. Consider `CCSCCN1CCC(NC(N)=NC(=O)c2nc(Cl)c(N)nc2N)CC1` [Example 4.2], for which the IC50 was determined as 10 nM. With `CCS(=O)(=O)CCN1CCC(NC(N)=NC(=O)c2nc(Cl)c(N)nc2N)CC1` [Example 4.3] the figure was 10 nM; with `CCOC(=O)CNC(=O)CN1CCC(NC(N)=NC(=O)c2nc(Cl)c(N)nc2N)CC1` [Example 4.4], 11 nM. In the case of `CCN(CC)C(=O)CN1CCC(NC(N)=NC(=O)c2nc(Cl)c(N)nc2N)CC1` [Example 4.5] it was 36 nM; in that of `CCOC(=O)CN1CCC(NC(N)=NC(=O)c2nc(Cl)c(N)nc2N)CC1` [Example 4.6], 7 nM. In the case of `NC(=NC(=O)c1nc(Cl)c(N)nc1N)NC1CCN(CCN2CCOCC2)CC1` [Example 4.7] it was 30 nM; in that of `COC(=O)CCCN1CCC(NC(N)=NC(=O)c2nc(Cl)c(N)nc2N)CC1` [Example 4.8], 27 nM.
